Reference: ChEMBL document CHEMBL1201862, “PubChem BioAssay data set” (2004)
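96-well plates; 48 h exposure; 5 concentrations. Endpoints by linear interpolation between flanking doses. Not reached: highest tested concentration assigned. GI50 marks 50% less growth.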 Activity calls are given as the source filed them. Rule as the data show it: active = GI50 up to about 1.1 µM and inactive = higher.

Legend:
Test in all cases: DTP human tumour cell line panel, 48 h
SW-620 = test system: SW-620
PC-3 = test system: PC-3
MOLT-4 = test system: MOLT-4
786-0 = test system: 786-0
OVCAR-5 = test system: OVCAR-5
SK-OV-3 = test system: SK-OV-3
MDA-MB-231 = test system: MDA-MB-231
NCI-H522 = test system: NCI-H522
HCC 2998 = test system: HCC 2998
A549 = test system: A549
UACC-257 = test system: UACC-257
CAKI-1 = test system: CAKI-1
UACC-62 = test system: UACC-62
SK-MEL-28 = test system: SK-MEL-28
DU-145 = test system: DU-145
K562 = test system: K562
RPMI-8226 = test system: RPMI-8226
BT-549 = test system: BT-549
HT-29 = test system: HT-29
UO-31 = test system: UO-31

Row | Compound | GI50 (SW-620) | GI50 (PC-3) | GI50 (MOLT-4) | GI50 (786-0) | GI50 (OVCAR-5) | GI50 (SK-OV-3) | GI50 (MDA-MB-231) | GI50 (NCI-H522) | GI50 (HCC 2998) | GI50 (A549) | GI50 (UACC-257) | GI50 (CAKI-1) | GI50 (UACC-62) | GI50 (SK-MEL-28) | GI50 (DU-145) | GI50 (K562) | GI50 (RPMI-8226) | GI50 (BT-549) | GI50 (HT-29) | GI50 (UO-31)
1 | C/C=C(\C)c1cc(=O)c2c(C)cc3c(c2o1)C(=O)c1c(O)c(C2CC(C)(N(C)C)C(OC(C)=O)C(C)O2)cc(C2CC(N(C)C)C(O)C(C)O2)c1C3=O (stereo not given) | 0.532 µM (active) | 1.35 µM (inactive) | 0.372 µM (active) | 0.358 µM (active) | 1.25 µM (inactive) | 1.95 µM (inactive) | 1.14 µM (inactive) | 0.172 µM (active) | 0.0589 µM (active) | 0.41 µM (active) | 1.49 µM (inactive) | 0.265 µM (active) | 1.12 µM (inactive) | 1.91 µM (inactive) | 0.258 µM (active) | 0.652 µM (active) | 1.08 µM (active) | 1.07 µM (active) | 0.324 µM (active) | 0.948 µM (active)
2 | CCOc1ccccc1N1CSc2nnc(-c3ccccc3)n2C1 | 49 µM (inactive) | > 100 µM (inactive) | > 100 µM (inactive) | > 100 µM (inactive) | > 100 µM (inactive) | > 100 µM (inactive) | > 100 µM (inactive) | > 100 µM (inactive) | > 100 µM (inactive) | > 100 µM (inactive) | > 100 µM (inactive) | > 100 µM (inactive) | > 100 µM (inactive) | > 100 µM (inactive) | > 100 µM (inactive) | > 100 µM (inactive) | 33.8 µM (inactive) | > 100 µM (inactive) | 73.3 µM (inactive) | > 100 µM (inactive)
3 | COC(=O)c1ccc2c(O)c(O)ccc2c1 | 12.1 µM (inactive) | 5.6 µM (inactive) | 4.81 µM (inactive) | 15.6 µM (inactive) | 19.2 µM (inactive) | 18.1 µM (inactive) | 6.56 µM (inactive) | 15.2 µM (inactive) | 15.1 µM (inactive) | 22.2 µM (inactive) | 14.9 µM (inactive) | 25.1 µM (inactive) | 15.9 µM (inactive) | 16.3 µM (inactive) | 16.4 µM (inactive) | 2.36 µM (inactive) | 14.7 µM (inactive) | 12.5 µM (inactive) | 17.1 µM (inactive) | 20.7 µM (inactive)
4 | O/N=C1\SC(=N\O)/C(=N/O)S\C1=N/O | > 100 µM (inactive) | > 100 µM (inactive) | > 100 µM (inactive) | > 100 µM (inactive) | > 100 µM (inactive) | > 100 µM (inactive) | > 100 µM (inactive) | 16.2 µM (inactive) | > 100 µM (inactive) | > 100 µM (inactive) | > 100 µM (inactive) | > 100 µM (inactive) | 94.8 µM (inactive) | > 100 µM (inactive) | > 100 µM (inactive) | 51.2 µM (inactive) | 83.2 µM (inactive) | > 100 µM (inactive) | > 100 µM (inactive) | 87.5 µM (inactive)
5 | CCOC(=O)C(NC(=O)CC)(Nc1ccc(F)c(Cl)c1)C(F)(F)F (stereo not given) | > 100 µM (inactive) | > 64.1 µM (inactive) | > 74.8 µM (inactive) | > 100 µM (inactive) | > 100 µM (inactive) | > 100 µM (inactive) | > 100 µM (inactive) | > 100 µM (inactive) | > 100 µM (inactive) | > 100 µM (inactive) | > 100 µM (inactive) | > 100 µM (inactive) | 34.4 µM (inactive) | > 100 µM (inactive) | > 100 µM (inactive) | > 29.2 µM (inactive) | > 63.2 µM (inactive) | > 100 µM (inactive) | > 100 µM (inactive) | > 100 µM (inactive)
6 | CCCCCCCCCCCCCCCCCCNc1nc(=O)n(C2CC(O)C(COP(=O)(O)OCC(COP(=O)(O)OC3C(CO)OC(n4ccc(N)nc4=O)C3O)OCCCCCCCCCCCCCCCCCC)O2)cc1F (stereo not given) | > 100 µM (inactive) | 13.2 µM (inactive) | 0.675 µM (active) | 14.8 µM (inactive) | 67.1 µM (inactive) | 99.3 µM (inactive) | > 100 µM (inactive) | 11.9 µM (inactive) | 14.1 µM (inactive) | 14.5 µM (inactive) | 97.3 µM (inactive) | 46.3 µM (inactive) | > 100 µM (inactive) | 69.7 µM (inactive) | 34.8 µM (inactive) | 22.9 µM (inactive) | 11.8 µM (inactive) | 56.4 µM (inactive) | 79.1 µM (inactive) | 28.8 µM (inactive)
7 | CC(C)CCC1(O)O[C@H]2C[C@H]3[C@@H]4CCC5CC(=O)C=C[C@]5(C)[C@H]4CC[C@]3(C)[C@H]2[C@@H]1C (stereo not given in full) | 12.1 µM (inactive) | 5.02 µM (inactive) | 2.56 µM (inactive) | 12.3 µM (inactive) | 13.1 µM (inactive) | 18.8 µM (inactive) | 14.5 µM (inactive) | 1.8 µM (inactive) | 0.148 µM (active) | 14.7 µM (inactive) | 15 µM (inactive) | 14.5 µM (inactive) | 14.6 µM (inactive) | 11.5 µM (inactive) | 14.7 µM (inactive) | 5.07 µM (inactive) | 4.88 µM (inactive) | 14.3 µM (inactive) | 7.64 µM (inactive) | 16.6 µM (inactive)
